Like-named read-outs stand apart in the source and are kept apart here.
Assays:
HCT-116 wild-type cells = experiment: Inhibitory activity on proliferation of HCT-116 wild-type cells (Cell-Titer Glo); type: cell-based; details: 8 d incubation
Description: Cell culture: HCT-116 wild-type cells were cultured with a RPMI-1640 medium containing 10% fetal bovine serum+1% penicillin-streptomycin at 37°C in 5% carbon dioxide. Only cells in the logarithmic growth phase could be used for the test.
Test of cell proliferation activity: Cell-Titer Glo kit was used to test the proliferation inhibitory activity of the compound on HCT-116 wild-type cells. The cell concentration was adjusted, rendering that cells were inoculated into a 384-well plate at 40 µL per well and incubated overnight at 37°C and 5% carbon dioxide. 40 nL of the compound was added to each well to reach a final concentration of 0-10,000 nM (starting concentration 10,000 nM, 2-fold dilution, 10 points), and the cell plate with 0.1% DMSO content was incubated at 37°C and 5% carbon dioxide for 8 d. 40 µL of Cell-Titer Glo reagent was added to test cell viability.

[1] = test system: LU99 MTAP(-/-)deleted cells; experiment: Inhibitory activity on proliferation of LU99 MTAP(-/-)deleted cells (Cell-Titer Glo); details: Homo sapiens, Lu-99, 144 h, read-out: IC50 (nM) Lu99 MTAP(-/-)Deleted, LU99 MTAP(-/-)deleted cells, 6 d incubation, Cell-Titer Glo
Description: (§1) Materials and cells: LU99 MTAP deleted cell line was purchased from Kyinno Biotechnology (China); cell culture medium and fetal bovine serum were purchased from Thermo Fisher Scientific (USA); 384-well plates were purchased from PerkinElmer (USA); Cell-Titer Glo kits were purchased from Promega (USA). Cell culture: LU99 MTAP(-/-)deleted cells were cultured with medium containing 10% fetal bovine serum at 37°C in 5% carbon dioxide. Only cells in the logarithmic growth phase could be used for the test.
(§2) Test of inhibitory activity on cell proliferation: The Cell-Titer Glo kit was used to test the proliferation inhibitory activity of the compounds on LU99 MTAP(-/-)deleted cells. The cell concentration was adjusted, rendering that cells were inoculated into a 384-well plate at 40 µL per well and incubated overnight at 37°C and 5% carbon dioxide. […] 40 µL of Cell-Titer Glo reagent was added to test cell viability.

[2] = test system: LU99 MTAP overexpressing cells; experiment: Inhibitory activity on proliferation of LU99 MTAP overexpressing cells (Cell-Titer Glo); type: cell-based; details: 6 d incubation
Description: Materials and cells: LU99 MTAP overexpressing cell line was purchased from Kyinno Biotechnology (China); cell culture medium and fetal bovine serum were purchased from Thermo Fisher Scientific (USA); 384-well plates were purchased from PerkinElmer (USA); Cell-Titer Glo kits were purchased from Promega (USA).
Cell culture: LU99 MTAP overexpressing cells were cultured with medium containing 10% fetal bovine serum at 37°C in 5% carbon dioxide. Only cells in the logarithmic growth phase could be used for the test.
Test of inhibitory activity on cell proliferation: The Cell-Titer Glo kit was used to test the proliferation inhibitory activity of the compounds on LU99 MTAP overexpressing cells. The cell concentration was adjusted, rendering that cells were inoculated into a 384-well plate at 40 µL per well and incubated overnight at 37°C and 5% carbon dioxide. 40 nL of the compound was added to each well to reach a final concentration of 0-10,000 nM (starting concentration 10,000 nM, 2.5-fold dilution, 10 points), and the cell plate with 0.2% DMSO content was incubated at 37°C and 5% carbon dioxide for 6 d. 40 µL of Cell-Titer Glo reagent was added to test cell viability.

[3] = Pharmacokinetic test in mice; type: in vivo; details: male, mouse, plasma, ICR mice; for bioavailability: read-out: Bioavailability (F)
Description: The test compounds are compounds according to examples of the present disclosure
ICR male mice N=3/group; original source: Zhejiang Vital River Laboratory Animal Technology Co., Ltd.
Single oral administration (PO) to ICR mice: The compound was weighed and dissolved with DMSO, a certain volume of polyethylene glycol 400 and water for injection (WFI) were added, and then a small volume of 1 mol/L hydrochloric acid solution was added to adjust to a clear solution. […]
Single intravenous (IV) administration to ICR mice: The compound was weighed and dissolved with DMSO, a certain volume of polyethylene glycol 400 and water for injection (WFI) were added, and then a small volume of 1 mol/L hydrochloric acid solution was added to adjust to a clear solution. The administration via tail vein injection was conducted for a total of 3 mice after fasting overnight at a dose of 3 mg/kg.
Blood was collected from the dorsalis pedis vein at approximately 30 µL/time point, anticoagulated with dipotassium ethylenediaminetetraacetate and kept on ice until plasma was separated by centrifugation (4000 g/min; 5 min; 4°C) within 1 h. The blood sampling time points were 0.0833 (intravenous injection), 0.25, 0.5, 1, 2, 4, 6, 8, and 24 h. The samples were stored in a refrigerator at -20°C.
A total of 30 µL of plasma sample (10 µL sample + 20 µL blank plasma sample) was added with 200 µL ice-cold ACN containing internal standard, vortexed for 30 s, and centrifuged at 4000 g/min for 20 min. A total of 100 µL of the supernatant was transferred to a 96-well plate, 200 µL of ultrapure water was added, vortexed for 30 s, and 5 µL or 10 µL was injected into LC-MS/MS for analysis. Table 2: Pharmacokinetic Data

[4] = test system: HCT-116 MTAP(-/-)deleted cells; experiment: Inhibitory activity on proliferation of HCT-116 MTAP(-/-)deleted cells (Cell-Titer Glo); details: Homo sapiens, HCT-116, 192 h
Description: (§3) Only cells in the logarithmic growth phase could be used for the test. […] The cell concentration was adjusted, rendering that cells were inoculated into a 384-well plate at 40 µL per well and incubated overnight at 37°C and 5% carbon dioxide. 40 nL of the compound was added to each well to reach a final concentration of 0-10,000 nM (starting concentration 10,000 nM, 3-fold dilution, 10 points), and the cell plate with 0.1% DMSO content was incubated at 37°C and 5% carbon dioxide for 8 d. 40 µL of Cell-Titer Glo reagent was added to test cell viability.

[5] = test system: HCT-116 MTAP(-/-)deleted cells; details: 192 h
Description: as §3

[6] = test system: LU99 MTAP(-/-)deleted cells; details: 144 h
Description: as §1, §2

[7] = read-out: IC50 (nM) HCT-116 MTAP(-/-)deleted

IC50 (HCT-116 wild-type cells; Homo sapiens, HCT-116, 192 h)	IC50 [4, 7]	Compound	IC50 [1]	IC50 ([2]; Homo sapiens, Lu-99, 144 h)	also measured
1040 nM	5.8 nM	CN(C(=O)c1ccc2nc(N)c3cncn3c2c1)[C@@H]1COC2(CC2)c2cc(C(F)(F)F)ccc21 [Example 54, (S)-4-amino-N-methyl-N-(7'-(trifluoromethyl)spiro[cyclopropane-1,1'-isochroman]-4'-yl)imidazo[1,5-a]quinoxaline-8-carboxamide]	8.11 nM	1100 nM	bioavailability ([3]; PO(30mg/kg)): 86.5%; bioavailability ([3]; PO(100mg/kg)): 48.2%; AUC(0-t) ([3]; IV(3mg/kg)): 25.4 µg·h/mL; half-life ([3]; IV(3mg/kg)): 2.37 h; AUC(0-t) ([3]; PO(30mg/kg)): 220 µg·h/mL; half-life ([3]; PO(30mg/kg)): 1.47 h; AUC(0-t) ([3]; PO(100mg/kg)): 408 µg·h/mL; half-life ([3]; PO(100mg/kg)): 2.06 h
		CN(C(=O)c1ccc2nc(N)c3cncn3c2c1)C1COC2(CCC2)c2cc(N3CCOCC3)ncc21 (stereo not drawn) [Example 6, 4-Amino-N-methyl-N-(7'-morpholinyl-3',4'-dihydrospiro[cyclobutane-1,1'-pyrano[4,3-c]pyridine]-4'-yl)imidazo[1,5-a]quinoxaline-8-carboxamide]			IC50 (HCT-116 wild-type cells): 10000 nM; IC50 [5]: 110 nM; IC50 [2]: 3880 nM; IC50 [6]: 88.5 nM
1730 nM	7.64 nM	CN(C(=O)c1ccc2nc(N)c3cncn3c2c1)C1COC2(CCOCC2)c2cc(C(F)(F)F)ccc21 (stereo not drawn) [Example 12, 4-Amino-N-methyl-N-(7'-(trifluoromethyl)-2',3',5',6'-tetrahydrospiro[isochroman-1,4'-pyran]-4-yl)imidazo[1,5-a]quinoxaline-8-carboxamide]	8.8 nM	1640 nM	
7050 nM	34.1 nM	CN(C(=O)c1ccc2nc(N)c3cncn3c2c1)[C@@H]1COC2(CCC2)c2cc(-n3cc(C(F)(F)F)cn3)ncc21 [Example 45, (S)-4-amino-N-methyl-N-(7'-(4-(trifluoromethyl)-1H-pyrazol-1-yl)-3',4'-dihydrospiro[cyclobutane-1,1'-pyrano[4,3-c]pyridine]-4'-yl)imidazo[1,5-a]quinoxaline-8-carboxamide]	30.2 nM	4710 nM	
4520 nM	51.5 nM	CN(C(=O)c1ccc2nc(N)c3cncn3c2c1)C1COC2(CCC3(CC3)CC2)c2cc(C(F)(F)F)ccc21 (stereo not drawn) [Example 23]	66.1 nM	3970 nM	
> 10000 nM		CN(C(=O)c1ccc2nc(N)c3cncn3c2c1)C1COC2(CCC2)c2cc(N3CCOCC3)ncc21 (stereo not drawn) [Example 28, 4-Amino-N-methyl-N-(7'-morpholinyl-3',4'-dihydrospiro[cyclobutane-1,1'-pyrano[4,3-c]pyridine]-4'-yl)imidazo[1,5-a]quinoxaline-8-carboxamide]	88.5 nM	3880 nM	IC50 ([4]; read-out: IC50 (nM) HCT-116 MTAP(-/-)deleted, HCT-116 MTAP(-/-)deleted cells, 8 d incubation, Cell-Titer Glo): 110 nM
7590 nM	419 nM	CN(C(=O)c1ccc2nc(N)c3cncn3c2c1)[C@H]1COC2(CC2)c2cc(C(F)(F)F)ccc21 [Example 53, (R)-4-amino-N-methyl-N-(7'-(trifluoromethyl)spiro[cyclopropane-1,1'-isochroman]-4'-yl)imidazo[1,5-a]quinoxaline-8-carboxamide]	682 nM	1750 nM	
1610 nM	5.9 nM	CN(C(=O)c1cc2c(cc1F)nc(N)c1cncn12)C1COC2(CCOCC2)c2cc(C(F)(F)F)ccc21 (stereo not drawn) [Example 16, 4-Amino-7-fluoro-N-methyl-N-(7-(trifluoromethyl)-2',3',5',6'-tetrahydrospiro[isochroman-1,4'-pyran]-4-yl)imidazo[1,5-a]quinoxaline-8-carboxamide]	10.8 nM	1290 nM	
1830 nM	8.02 nM	Cc1ncc2c(N)nc3cc(F)c(C(=O)N(C)C4COC5(CCCOC5)c5cc(C(F)(F)F)ccc54)cc3n12 (stereo not drawn) [Example 51, 4-Amino-7-fluoro-N,1-dimethyl-N-(7-(trifluoromethyl)-5',6'-dihydro-2'H,4'H-pyran[isochroman-1,3'-pyran]-4-yl)imidazo[1,5-a]quinoxaline-8-carboxamide]	14 nM	1320 nM	
602 nM	8.06 nM	Cc1ncn2c1c(N)nc1cc(F)c(C(=O)N(C)C3COC4(CCCOC4)c4cc(C(F)(F)F)ccc43)cc12 (stereo not drawn) [Example 52, 4-Amino-7-fluoro-N,3-dimethyl-N-(7-(trifluoromethyl)-5',6'-dihydro-2'H,4'H-pyran[isochroman-1,3'-pyran]-4-yl)imidazo[1,5-a]quinoxaline-8-carboxamide]	14.9 nM	539 nM	
597 nM	5.3 nM	CN(C(=O)c1cc2c(cc1F)nc(N)c1cncn12)C1COC2(CCC2)c2cc(C(F)(F)F)ccc21 (stereo not drawn) [Example 13, 4-Amino-7-fluoro-N-methyl-N-(7'-(trifluoromethyl)spiro[cyclobutane-1,1'-isochroman]-4'-yl)imidazo[1,5-a]quinoxaline-8-carboxamide]	7.8 nM	773 nM	
3930 nM	9 nM	CN(C(=O)c1ccc2nc(N)c3cncn3c2c1)C1COC2(CC2)c2cc(C(F)(F)F)ccc21 (stereo not drawn) [Example 8, 4-Amino-N-methyl-N-(7'-(trifluoromethyl)spiro[cyclopropane-1,1'-isochroman]-4'-yl)imidazo[1,5-a]quinoxaline-8-carboxamide]	13.4 nM	2310 nM	

Compound	IC50 (HCT-116 wild-type cells; Homo sapiens, HCT-116, 192 h)	IC50 [4, 7]	IC50 [1]	IC50 ([2]; Homo sapiens, Lu-99, 144 h)	also measured
CN(C(=O)c1ccc2nc(N)c3cncn3c2c1)[C@@H]1COC2(CCC2)c2cc(N3C4COCC3C4)ncc21 [Example 48, N-((4'S)-7'-(3-oxa-6-azabicyclo[3.1.1]heptane-6-yl)-3',4'-dihydrospiro[cyclobutane-1,1'-pyrano[4,3-c]pyridine]-4'-yl)-4-amino-N-methylimidazo[1,5-a]quinoxaline-8-carboxamide]	> 20000 nM	144 nM	150 nM	10600 nM	
